Measurements: patent US20240034753A1, “THERAPEUTIC PEPTIDES” (COHBAR, INC., priority 2020, published 2024)
Square brackets hold non-standard residues; d marks the D form. Ends that are not written are not given here. Peptide text beside a SMILES is read from it.

What was measured:
[1] = tested on: A172 human brain glioblastoma cell line; experiment: Caspase-Glo 3/7 assay of caspase 3/7 activity in cultured cells; assay type: cell-based; conditions: peptide 10 μM, 18-20 hours, relative to 0.1% DMSO control
Description: The effect of the peptides on cell death/survival can be assessed using a […] assay in cultured cells. Peptides were dissolved at 10 mM in DMSO as stock solutions for use at a final concentration of 10 μM. […] Caspase-Glo 3/7 Assay Reagent was purchased from Promega (Madison, WI). A172 human brain glioblastoma cell line was purchased from American Type Culture Collection (Manassas, VA). A172 cells were grown in DMEM supplemented with 10% FBS with 100 IU/ml penicillin and 100 μg/ml streptomycin. Cultures were maintained at 37° C. in a humidified atmosphere of 5% CO2/95% air. A172 cells were seeded at 8,000 cells per well on 96-well plates. […] Caspase 3/7 activity was determined using a Caspase-Glo 3/7 Assay kit (Promega) according to the manufacturer's instructions. Luminescence for each sample well on the plate was measured using a Cytation 3 plate reader (BioTek, Winooski, VT). Activity was calculated relative to 0.1% DMSO control.

A172 Cells = experiment: PrestoBlue cell viability assay; assay type: cell-based; conditions: human, 10 μM
Description: The effect of the peptides on cell viability can be assessed in cultured cells using suitable assay of viability such as the PrestoBlue® assay (Thermo Fisher Scientific, Waltham, MA). Peptides were initially prepared as 10 mM stock in DMSO and tested at a final concentration of 10 μM (0.1% DMSO). […] PrestoBlue Assay Reagent was purchased from Thermo Fisher Scientific. A172 human brain glioblastoma cell line was purchased from American Type Culture Collection (Manassas, VA). A172 cells were grown in DMEM supplemented with 10% FBS with 100 IU/ml penicillin and 100 μg/ml streptomycin. Cultures were maintained at 37° C. in a humidified atmosphere of 5% CO2/95% air. A172 cells were seeded at 8,000 cells per well on 96-well plates. […] Cell viability was determined using a PrestoBlue Assay reagent […] according to the manufacturer's instructions. Absorption for each sample well on the plate was measured using a Cytation 3 plate reader at 560 nm and 590 nm (BioTek, Winooski, VT). Activity was calculated relative to 0.1% DMSO untreated control. Treatment with 0.1% DMSO alone was used as the cell viability activity control. The relative standard deviation of the DMSO control was <5%.

3T3-L1 Mouse Adipocytes = experiment: Free fatty acid levels in cultured mouse adipocytes stimulated with isoproterenol; assay type: cell-based; conditions: peptide 10 μM, 20-22 hours then 3 hours with 1 nM isoproterenol; relative to isoproterenol treated cells
Description: The effect of the peptides on fatty acid metabolism can be assessed using an assay of free fatty acid levels in cultured cells such as mouse adipocytes. Peptides were initially prepared as 10 mM stock in DMSO and used at a final concentration of 10 μM (0.1% DMSO). […] Mouse 3T3-L1 cells purchased from ZenBio were seeded at 3,000 cells per well in 96-well plates in Pre-adipocyte Medium (Zen-Bio) and grown to confluence at 37° C. in a humidified atmosphere of 5% CO2/95% air. Two days after confluence, cells were placed in Adipocyte Differentiation Medium (Zen-Bio) and cultured for three additional days at 37° C. in a humidified atmosphere of 5% CO2/95% air. The culture media was then replaced with Adipocyte Maintenance Medium (Zen-Bio) and the cells maintained for an additional 9-12 days at 37° C. in a humidified atmosphere of 5% CO2/95% air with partial medium replacement every other day. Following 12-15 days of differentiation, test peptides were added at a final concentration of 10 μM in 0.1% DMSO and incubated for 20-22 hours in Adipocyte Maintenance Medium at 37° C. in a humidified atmosphere of 5% CO2/95% air. After 20-22 hours, 1 nM isoproterenol was added to all wells except untreated controls and test peptides were replenished. Insulin at 100 nM was added to control wells. Cells were incubated for 3 hours in Assay Buffer (Zen-Bio) at 37° C. in a humidified atmosphere of 5% CO2/95% air. Free fatty acid concentrations in the media were determined using a Free Fatty Acid Assay kit (Zen-Bio) according to the manufacturer's instructions using a Cytation 3 plate reader at 540 nm (BioTek, Winooski, VT). Absorbance values were corrected for untreated background and expressed relative to isoproterenol treated cells. Treatment with isoproterenol (1 nM) alone was used as the free fatty acid level stimulatory control. The relative standard deviation of the isoproterenol control was <10%. […] Free fatty acid levels for insulin (100 nM) treatment were <5% of the isoproterenol control value.

[2] = tested on: SH-SY5Y Neuroblastoma Cells Exposed to Staurosporine; experiment: ATP levels in cells exposed to staurosporine (CellTiter-Glo); assay type: cell-based, human; conditions: peptide 10 μM plus staurosporine (40 μM), 18-20 hours; <100% cytoprotective, >100% synergistic
Description: Peptides were initially prepared as 10 mM stock in DMSO and tested at a final concentration of 10 μM (0.1% DMSO). […] […] CellTiter-Glo® Assay kit was purchased from Promega. SH-SY5Y human neuroblastoma cell line was purchased from American Type Culture Collection (Manassas, VA) and licensed from Memorial Sloan-Kettering Cancer Center (New York, NY). SH-SY5Y cells were grown in DMEM/F12 medium supplemented with 10% FBS with 100 IU/ml penicillin and 100 μg/ml streptomycin. Cultures were maintained at 37° C. in a humidified atmosphere of 5% CO2/95% air. SH-SY5Y cells were seeded at 30,000 cells per well on 96-well plates. […] ATP levels were determined using a CellTiter-Glo Assay kit (Promega) according to the manufacturer's instructions. Luminescence for each sample well on the plate was measured using a Cytation 3 plate reader (BioTek, Winooski, VT). […] A value less than 100% is indicative of a cytoprotective effect, while a value greater than 100% is indicative of a synergistic effect on viability.

Compound: CC[C@H](C)[C@H](NC(=O)[C@@H](NC(=O)[C@H](Cc1c[nH]cn1)NC(=O)[C@H](CCCNC(=N)N)NC(=O)[C@H](CC(=O)O)NC(=O)[C@H](Cc1ccc(O)cc1)NC(=O)[C@H](CC(C)C)NC(=O)[C@H](CC(C)C)NC(=O)[C@@H](NC(=O)[C@@H](N)Cc1c[nH]c2ccccc12)C(C)C)C(C)C)C(=O)NCC(=O)NCC(=O)N[C@@H](CO)C(=O)N[C@@H](CC(C)C)C(=O)N[C@@H](CS)C(=O)N[C@H](C(=O)N[C@H](C(=O)N[C@H](C(=O)N[C@@H](CCC(N)=O)C(=O)N[C@H](C(=O)N[C@@H](CCC(=O)O)C(=O)N[C@H](C)C(=O)N[C@@H](Cc1ccc(O)cc1)C(=O)O)C(C)C)C(C)C)C(C)C)C(C)C [compound 23] (H-WVLLYDRHVIGGSLCVVVQVE[dA]Y-OH; N-terminus and C-terminus assumed)
- Caspase 3/7 Activity, Percent of Control Activity [1]: 104.3%
- PrestoBlue cell viability, Percent of Control Activity (A172 Cells): 97.1%
- Free Fatty Acid Levels, MEAN %ISO (3T3-L1 Mouse Adipocytes): 77.1%
- Percent of ATP Reduction Induced by Control [2]: 69.6%

Compound: CC[C@H](C)[C@H](NC(=O)[C@@H](NC(=O)[C@H](Cc1c[nH]cn1)NC(=O)[C@H](CCCNC(=N)N)NC(=O)[C@H](CC(=O)O)NC(=O)[C@H](Cc1ccc(O)cc1)NC(=O)[C@H](CC(C)C)NC(=O)[C@H](CC(C)C)NC(=O)[C@@H](NC(=O)[C@@H](N)Cc1c[nH]c2ccccc12)C(C)C)C(C)C)C(=O)NCC(=O)NCC(=O)N[C@@H](CO)C(=O)N[C@@H](CC(C)C)C(=O)N[C@@H](CS)C(=O)N[C@H](C(=O)N[C@H](C(=O)N[C@H](C(=O)N[C@@H](CCC(N)=O)C(=O)N[C@H](C(=O)N[C@@H](CCC(=O)O)C(=O)N[C@H](C)C(=O)O)C(C)C)C(C)C)C(C)C)C(C)C [compound 24] (H-WVLLYDRHVIGGSLCVVVQVE[dA]-OH; N-terminus and C-terminus assumed)
- Caspase 3/7 Activity, Percent of Control Activity [1]: 108.8%
- PrestoBlue cell viability, Percent of Control Activity (A172 Cells): 96.7%
- Free Fatty Acid Levels, MEAN %ISO (3T3-L1 Mouse Adipocytes): 93.7%
- Percent of ATP Reduction Induced by Control [2]: 80.4%

Compound: CC[C@H](C)[C@H](NC(=O)[C@@H](NC(=O)[C@H](Cc1c[nH]cn1)NC(=O)[C@H](CCCNC(=N)N)NC(=O)[C@H](CC(=O)O)NC(=O)[C@H](Cc1ccc(O)cc1)NC(=O)[C@H](CC(C)C)NC(=O)[C@H](CC(C)C)NC(=O)[C@@H](NC(=O)[C@@H](N)Cc1c[nH]c2ccccc12)C(C)C)C(C)C)C(=O)NCC(=O)NCC(=O)N[C@@H](CO)C(=O)N[C@@H](CC(C)C)C(=O)N[C@@H](CS)C(=O)N[C@H](C(=O)N[C@@H](CCC(N)=O)C(=O)N[C@H](C(=O)N[C@@H](CCC(N)=O)C(=O)N[C@H](C(=O)N[C@@H](CCC(=O)O)C(=O)N[C@H](C)C(=O)O)C(C)C)C(C)C)C(C)C [compound 25] (H-WVLLYDRHVIGGSLCVQVQVE[dA]-OH; N-terminus and C-terminus assumed)
- Caspase 3/7 Activity, Percent of Control Activity [1]: 108.8%
- PrestoBlue cell viability, Percent of Control Activity (A172 Cells): 96.5%
- Free Fatty Acid Levels, MEAN %ISO (3T3-L1 Mouse Adipocytes): 91.6%
- Percent of ATP Reduction Induced by Control [2]: 82.7%

Compound: GWVLLYDRHVIGGSLCVVVQVEAY [compound 22]
- Caspase 3/7 Activity, Percent of Control Activity [1]: 105.0%
- PrestoBlue cell viability, Percent of Control Activity (A172 Cells): 96.5%
- Free Fatty Acid Levels, MEAN %ISO (3T3-L1 Mouse Adipocytes): 84.7%
- Percent of ATP Reduction Induced by Control [2]: 73.1%

Compound: MAGVIRGVLVL [compound 8]
- Caspase 3/7 Activity, Percent of Control Activity [1]: 86.7%
- PrestoBlue cell viability, Percent of Control Activity (A172 Cells): 92.0%
- Free Fatty Acid Levels, MEAN %ISO (3T3-L1 Mouse Adipocytes): 76.9%
- Percent of ATP Reduction Induced by Control [2]: 92.6%

Compound: MLLILTLVLL [compound 2]
- Caspase 3/7 Activity, Percent of Control Activity [1]: 86.6%
- PrestoBlue cell viability, Percent of Control Activity (A172 Cells): 94.4%
- Free Fatty Acid Levels, MEAN %ISO (3T3-L1 Mouse Adipocytes): 80.7%
- Percent of ATP Reduction Induced by Control [2]: 91.6%

Compound: MMAGVIRGVLVL [compound 7]
- Caspase 3/7 Activity, Percent of Control Activity [1]: 84.6%
- PrestoBlue cell viability, Percent of Control Activity (A172 Cells): 86.2%
- Free Fatty Acid Levels, MEAN %ISO (3T3-L1 Mouse Adipocytes): 66.4%
- Percent of ATP Reduction Induced by Control [2]: 103.3%

Compound: MRQWILHNGGMSFFC [compound 12]
- Caspase 3/7 Activity, Percent of Control Activity [1]: 109.7%
- PrestoBlue cell viability, Percent of Control Activity (A172 Cells): 100.5%
- Free Fatty Acid Levels, MEAN %ISO (3T3-L1 Mouse Adipocytes): 67.1%
- Percent of ATP Reduction Induced by Control [2]: 98.0%

Compound: MRRRMFSCYLY [compound 17]
- Caspase 3/7 Activity, Percent of Control Activity [1]: 91.3%
- PrestoBlue cell viability, Percent of Control Activity (A172 Cells): 100.6%
- Free Fatty Acid Levels, MEAN %ISO (3T3-L1 Mouse Adipocytes): 46.1%
- Percent of ATP Reduction Induced by Control [2]: 94.2%

Compound: RQWILHNGGMSFFC [compound 13]
- Caspase 3/7 Activity, Percent of Control Activity [1]: 115.8%
- PrestoBlue cell viability, Percent of Control Activity (A172 Cells): 99.1%
- Free Fatty Acid Levels, MEAN %ISO (3T3-L1 Mouse Adipocytes): 74.0%
- Percent of ATP Reduction Induced by Control [2]: 103.8%

Compound: RRRMFSCYLY [compound 18]
- Caspase 3/7 Activity, Percent of Control Activity [1]: 95.7%
- PrestoBlue cell viability, Percent of Control Activity (A172 Cells): 100.9%
- Free Fatty Acid Levels, MEAN %ISO (3T3-L1 Mouse Adipocytes): 58.5%
- Percent of ATP Reduction Induced by Control [2]: 96.1%
